Results published in patent US4432973A, “Benzoyl- and α-hydroxybenzyl-phenyl-glycosides and application thereof in therapeutics” (Societe de Recherches Industrielles (S.O.R.I.), priority 1980, dated 1984).

How the values were obtained:
[1] = Acute toxicity in the mouse by the I.P. route; assay type: in vivo; conditions: for LD50: read-out: DL-50 (lethal dose involving the death of half of the animals)
Text: The acute toxicity was studied in the mouse by the I.P. route. It is expressed in the form of DL-50 (lethal dose involving the death of half of the animals) or DL-0 (maximum non-lethal dose).

[2] = Veinous thrombosis: veinous anti-thrombus activity; assay type: in vivo; conditions: Rattus norvegicus, ip, 100 mg/kg I.P., 4 to 5 hours after administration, read-out: Diminution of veinous thrombus
Protocol: The technique used is similar to the one described by Peterson-Zucker in Thrombo.Diath.Haemorh. 23, 1, (1970).
An occlusive thrombus is created in the […] vena cava of a rat by the combined action of an endothelial alteration and a veinous stasis for 15 mins. and 4 to 5 hours after administration of the product to be tested (100 mg/kg I.P.).

[3] = Anti-hypoxic activity: survival to hypoxia (nitrogen-oxygen 95:5); assay type: in vivo, mouse (Swiss male); conditions: I.P., 1/10th of LD-50 or 100 mg/kg when LD-0 ≥ 800 mg/kg; up to 15 minutes; mouse
Protocol: The experiment is carried out on batches of 20 Swiss male mice weighing from 20 to 30 g. Each product to be tested is administered to the mice by intraperitoneal route at a dose corresponding to 1/10th of the LD-50 or at a dose of 100 mg/kg when the LD-0 is higher than or equal to 800 mg/kg. The mice are placed in a nitrogen-oxygen (95:5) v/v atmosphere. The survival time of the mice is then measured up to 15 minutes maximum.
The results shown in Table VII are expressed in percentage of survival with respect to a non-treated control batch and a batch treated with an anti-hypoxic reference product [specialty known under the trade name of "Duxil" and which is constituted by a mixture of Almitrine bis-methanesulfonate and of Raubasine in the weight ratio 3:1], the anti-hypoxic reference product being administered at the dose of 18 mg/kg I.P.

[4] = test system: blood platelet aggregation; test: Spontaneous aggregation: blood platelet anti-aggregation activity; assay type: in vivo, rat (adult male); conditions: t=5 hours, rat; for inhibition in vivo at 100 mg/kg: ip, 100 mg/kg I.P.
Protocol: The technique used is that of Sanders described in Laboratory Animal Science 27 (No. 5), pages 757-761 (1977).
After administration at 100 mg/kg I.P. (unless specified to the contrary in Table V hereinbelow) of the product to be tested to adult male reproducing rats, two blood samples are taken, one on sodium citrate and the other on sodium citrate treated with formaldehyde at instant t=5 hours.
After centrifugation of the samples, a platelet count is made on the supernatant liquid. The spontaneous aggregation index according to Wu and Hook Stroke 6, 521-524 (1975) is expressed by the relation: [formula]

[5] = Anti-ulcer activity: ulcer caused by aspirin; assay type: in vivo, rat (male Wistar); conditions: 100 mg/kg I.P.; aspirin 192 mg/kg per os; standardised to control batch and cimetidine (index 1)
Protocol: The experiment is carried out on male Wistar rats of 180 to 200 g. The products to be tested are administered at 100 mg/kg I.P. (unless indicated to the contrary in Table IV).
At t=0, the rats are made to fast and a first administration of the product to be tested is made.
At t=18 hours, 2 ml of an ulcer-forming suspension with 192 mg of aspirin/kg are administered per os then a second administration of the product to be tested is made.
At t=22 hours, the animals are sacrificed and the ulcers are marked as follows: small point-like ulcers: mark 1 more extensive ulcers: mark 3 highly extensive or very deep ulcers: mark 9
This marking is standardised with respect to a control batch and to cimetidine (a reference product) to which index 1 has been allocated.

| SMILES | LD50 ([1]; in vivo, ip, I.P.) [mg/kg] | inhibition in vivo at 100 mg/kg [2] [%] | Survival (survival percentage to hypoxic aggression) [3] | inhibition in vivo at 63 mg/kg ([4]; Platelet, 63 mg/kg IP) [%] | DL-50 (lethal dose involving the death of half of the animals) ([1]; I.P.) [mg/kg IP] | Inhibition of platelet aggregation ([4]; 33 mg/kg IP) | DL-0 (maximum non-lethal dose) ([1]; I.P.) [mg/kg IP] | inhibition in vivo at 100 mg/kg ([4]; Platelet) [%] | DL-0 (maximum non-lethal dose) ([1]; in vivo, ip) [mg/kg IP] | Ulcer index [5] |
| --- | --- | --- | --- | --- | --- | --- | --- | --- | --- | --- |
| Cc1cc(C(=O)c2ccccc2C)ccc1O[C@@H]1OC[C@@H](O)[C@H](O)[C@H]1O [Example 85] | > 550 | ≥ 50 | + (from 30 to 49%) |  |  |  |  |  |  |  |
| CC(=O)O[C@@H]1[C@@H](OC(C)=O)[C@H](Oc2c(C)cc(C(=O)c3ccccc3Cl)cc2C)OC[C@H]1OC(C)=O [Example 113] | 630 |  | +++ (higher than or equal to 80%) | ≥ 40 |  |  |  |  |  |  |
| OC(c1ccc(Cl)cc1)c1ccc(O[C@@H]2OC[C@@H](O)[C@H](O)[C@H]2O)cc1 (stereo partly shown) [Example 94] |  |  | + (from 30 to 49%) |  | 330 | + (inhibition of 25 to 39%) |  |  |  |  |
| COc1cc(C(=O)c2ccc(O[C@@H]3OC[C@@H](OC(C)=O)[C@H](OC(C)=O)[C@H]3OC(C)=O)cc2)cc(OC)c1OC [Example 79] |  |  |  |  |  |  | > 800 | ≥ 40 |  |  |
| CC(=O)O[C@@H]1[C@@H](OC(C)=O)[C@H](Oc2ccc(C(=O)c3ccc([N+](=O)[O-])cc3)cc2C)OC[C@H]1OC(C)=O [Example 104] |  |  | ++ (from 50 to 79%) |  |  |  |  | ≥ 40 | > 800 | 0.84 |
| CC(=O)N[C@H]1[C@H](Oc2ccc(C(=O)c3ccc(Cl)cc3)cc2)O[C@H](COS(=O)(=O)O)[C@@H](OS(=O)(=O)O)[C@@H]1OS(=O)(=O)O [Example 67, [4-(4-chlorobenzoyl)-phenyl]-3,4,6-tri-(ammonium-sulfate)-2-N-acetyl-β-D-glucosaminide] |  | 30 to 49 |  |  |  |  | > 800 | 25 to 39 |  | 0.81 |
| CC(=O)N[C@H]1[C@H](Oc2ccc(C(=O)c3ccc(C(F)(F)F)cc3)cc2)O[C@H](CO)[C@@H](O)[C@@H]1O [Example 118] |  |  | ++ (from 50 to 79%) |  |  |  |  | 25 to 39 | > 800 | 0.53 |
| Cc1ccccc1C(=O)c1cc(C)c(O[C@@H]2OC[C@@H](O)[C@H](O)[C@H]2O)c(C)c1 [Example 21] | 600 |  |  |  |  |  |  | ≥ 40 |  | 0.16 |
| Cc1ccc(C(=O)c2ccc(O[C@@H]3OC[C@@H](O)[C@H](O)[C@H]3O)cc2)cc1 [Example 12] |  |  | ++ (from 50 to 79%) |  |  |  |  | 25 to 39 | > 800 | 0.26 |
| O=C(c1ccc(O[C@@H]2OC[C@@H](O)[C@H](O)[C@H]2O)cc1)c1ccc([N+](=O)[O-])cc1 [Example 1, [4-(4-nitrobenzoyl)-phenyl]-β-D-xylopyranoside] |  |  | +++ (higher than or equal to 80%) |  |  |  |  | ≥ 40 | > 800 | 0.56 |
| CC(=O)N[C@H]1[C@H](Oc2c(C)cc(C(=O)c3ccc([N+](=O)[O-])cc3)cc2C)O[C@H](CO)[C@@H](O)[C@@H]1O [Example 119] |  | ≥ 50 | +++ (higher than or equal to 80%) |  |  |  |  |  | > 800 | 0.47 |
| CC(=O)O[C@@H]1[C@@H](OC(C)=O)[C@H](Oc2ccc(C(=O)c3ccc(C)cc3)cc2)OC[C@H]1OC(C)=O [Example 76] |  | 30 to 49 | ++ (from 50 to 79%) |  |  |  |  |  | > 800 | 0.38 |
| OC(c1ccc(Cl)cc1)c1ccc(O[C@@H]2OC[C@@H](O)[C@H](O)[C@H]2O)cc1 (stereo partly shown) [Example 91] |  | 30 to 49 | +++ (higher than or equal to 80%) |  |  |  |  |  | > 800 | 0.72 |
